Our source for the IC50 values is patent publication US9440952B2, “Compounds inhibiting leucine-rich repeat kinase enzyme activity” (Merck Sharp & Dohme Corp., priority 2013, dated 2016).

The experiment addresses T1, LRRK2(G2019S mutation, GST-LRRK2(amino acids 970-2527)) (Homo sapiens, UniProt Q5S007, G2019S).
T1 construct: GST-LRRK2(amino acids 970-2527); GST (N); purchased Life Technologies Corporation
Put plainly: LRRK2 Km ATP LanthaScreen Assay. Format: biochemical. As for the experimental part: Unless otherwise noted, all LRRK2 IC50 data presented in tables refers to the LRRK2 Km ATP LanthaScreen™ Assay that is described in the Biological Assay section.
The data presented for the 5 mM and Km ATP LanthaScreen™ Assay represents mean IC50 values based on several test results and may have reasonable. deviations depending on the specific conditions and reagents used. Reagents for the LRRK2 5 mM and Km ATP LanthaScreen™ Assay were purchased from Life Technologies Corporation.
Results are analysed using Assay Data Analyzer.
For orientation: TR-FRET usually uses a lanthanide donor and a delayed reading to cut background.

[1] abbreviates: Km ATP LanthaScreen, mean IC50 of several tests, read-out: LRRK2 IC50.
Where [2] appears, read: Km ATP LanthaScreen Assay, LRRK2 G2019S, mean IC50 values, read-out: LRRK2 IC50.
The mark [3] stands for this setting: Km ATP LanthaScreen Assay; LRRK2 G2019S; mean IC50 values; Examples 185-215; read-out: LRRK2 IC5).

Structures are written as SMILES. Where two headings read alike, the source gives them in different places.

T1 sequence (Q5S007 970-2527 G2019S): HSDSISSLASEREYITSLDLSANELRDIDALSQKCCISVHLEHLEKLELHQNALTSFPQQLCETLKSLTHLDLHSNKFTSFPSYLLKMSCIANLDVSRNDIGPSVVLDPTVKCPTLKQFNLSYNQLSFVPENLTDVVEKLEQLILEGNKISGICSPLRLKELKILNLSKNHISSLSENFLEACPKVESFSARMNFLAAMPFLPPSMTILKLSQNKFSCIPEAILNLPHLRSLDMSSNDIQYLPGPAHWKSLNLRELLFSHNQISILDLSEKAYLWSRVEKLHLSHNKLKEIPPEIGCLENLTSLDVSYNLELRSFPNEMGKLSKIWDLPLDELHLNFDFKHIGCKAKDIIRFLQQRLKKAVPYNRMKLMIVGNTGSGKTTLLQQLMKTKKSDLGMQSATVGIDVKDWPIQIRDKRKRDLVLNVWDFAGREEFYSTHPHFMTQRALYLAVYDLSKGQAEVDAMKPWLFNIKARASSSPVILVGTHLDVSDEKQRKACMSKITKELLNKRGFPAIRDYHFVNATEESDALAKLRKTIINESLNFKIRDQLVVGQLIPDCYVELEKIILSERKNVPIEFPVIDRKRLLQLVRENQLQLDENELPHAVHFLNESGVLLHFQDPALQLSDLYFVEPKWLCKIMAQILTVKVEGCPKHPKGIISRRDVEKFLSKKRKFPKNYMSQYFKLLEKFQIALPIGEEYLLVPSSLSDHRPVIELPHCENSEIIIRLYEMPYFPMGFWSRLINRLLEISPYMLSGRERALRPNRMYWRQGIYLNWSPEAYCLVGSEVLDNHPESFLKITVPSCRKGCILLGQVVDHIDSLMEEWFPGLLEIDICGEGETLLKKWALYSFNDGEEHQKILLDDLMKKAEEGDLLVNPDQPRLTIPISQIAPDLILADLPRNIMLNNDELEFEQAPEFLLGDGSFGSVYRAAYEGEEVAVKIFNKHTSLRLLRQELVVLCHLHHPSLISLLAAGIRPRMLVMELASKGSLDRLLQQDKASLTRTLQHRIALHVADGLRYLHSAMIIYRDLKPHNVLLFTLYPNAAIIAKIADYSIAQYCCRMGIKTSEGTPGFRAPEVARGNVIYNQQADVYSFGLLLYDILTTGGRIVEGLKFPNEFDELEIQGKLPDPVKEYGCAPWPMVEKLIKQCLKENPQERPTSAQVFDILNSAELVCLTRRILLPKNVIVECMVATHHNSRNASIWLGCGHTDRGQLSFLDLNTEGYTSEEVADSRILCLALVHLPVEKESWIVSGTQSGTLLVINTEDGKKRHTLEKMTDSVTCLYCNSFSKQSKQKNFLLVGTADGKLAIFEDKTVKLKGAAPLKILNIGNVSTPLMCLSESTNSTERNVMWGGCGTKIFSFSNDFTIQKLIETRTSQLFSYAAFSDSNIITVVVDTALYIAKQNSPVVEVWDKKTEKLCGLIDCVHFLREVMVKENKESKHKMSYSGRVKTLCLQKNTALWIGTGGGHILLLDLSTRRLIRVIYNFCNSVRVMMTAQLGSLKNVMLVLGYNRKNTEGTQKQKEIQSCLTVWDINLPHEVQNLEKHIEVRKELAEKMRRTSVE

With `COc1ccnc(F)c1-c1ccc2[nH]nc(-c3ccnc(N4CCN(S(C)(=O)=O)CC4)c3)c2c1` [Example 366], the IC50 under setting [1] was less than 0.6 nM.
Take `c1ccc2c(-c3ccnc(NCCN4CCOCC4)c3)n[nH]c2c1` [Example 73]: the IC50 under setting [2] was found to be 35 nM.
Regarding `CCc1nnc2n1CCN(c1cc(-c3n[nH]c4ccc(OC(C)C)cc34)ccn1)C2` [Example 195], under setting [3], the IC50 was 7.2 nM.
`Cc1nnc(-c2ccc3[nH]nc(-c4ccnc(N5CC(F)C5)c4)c3c2)o1` [Example 308]: the IC50 under setting [1] was found to be 4.9 nM.
Consider `CC(C)Oc1ccc2[nH]nc(-c3ccnc(NS(=O)(=O)c4ccc(C5(C#N)CC5)cc4)c3)c2c1` [Example 263], for which, under setting [1], the IC50 was determined as 60.8 nM.
On to `N#CC1(c2ccccn2)CCN(c2cc(-c3n[nH]c4ccccc34)ccn2)CC1` [Example 17], for which the IC50 under setting [2] was 16 nM.
The same measure, in the same setting: the figure for `c1ccc2c(-c3ccnc(N4CCSCC4)c3)n[nH]c2c1` [Example 12] is 46 nM; for `c1cc(-c2n[nH]c3ccc(CN4CCCCC4)cc23)cc(N2CCOCC2)n1` [Example 88] it is 164 nM.
With `FC(F)n1cc(-c2ccc3[nH]nc(-c4ccnc(N5CCOCC5)c4)c3c2)cn1` [Example 396], the IC50 under setting [1] amounted to 2.8 nM.
In the case of `CC(C)Oc1ccc2[nH]nc(-c3ccnc(NCc4ccccn4)c3)c2c1` [Example 132], under setting [2], the IC50 was found to be 2.2 nM.
As for `c1cc(-c2n[nH]c3ccc(-c4ncco4)cc23)cc(N2CCOCC2)n1` [Example 325], the IC50 under setting [1] came out at 6.9 nM.
In the case of `NC(=O)C1CCCN(c2cc(-c3n[nH]c4ccccc34)ccn2)C1` (stereo not shown) [Example 71], the IC50 under setting [2] was 16 nM.
Still for that read-out and setting: the figure for `CC(C)Oc1ccc2[nH]nc(-c3ccnc(NC(=O)C(C)C)c3)c2c1` [Example 154] is 39.4 nM.
The same measure, in the same setting: the figure for `CCOc1ccc2[nH]nc(-c3ccnc(N4CCC5OCCC54)c3)c2c1` (stereo not shown) [Example 220] is 22.6 nM.
Still for that read-out and setting: then `FC(F)(F)CN1CCN(c2cc(-c3n[nH]c4ccc(OC(F)(F)F)cc34)ccn2)CC1` [Example 237], with 279 nM; and `CC(C)CCNc1cc(-c2n[nH]c3ccc(Nc4cccc(S(C)(=O)=O)c4)cc23)ccn1` [Example 110], with 83 nM.
Consider `CCC(C)Oc1ccc2[nH]nc(-c3ccnc(N4CCOCC4)c3)c2c1` (stereo not shown) [Example 291], for which the IC50 under setting [1] was found to be 2.2 nM.
For the molecule `COCCNc1cc(-c2n[nH]c3ccc(OC(C)C)cc23)ccn1` [Example 292], under setting [1], the IC50 worked out at 5.9 nM.
As to `CN(C)CC1CN(c2cc(-c3n[nH]c4ccccc34)ccn2)CCO1` (stereo not shown) [Example 43], the IC50 under setting [2] is 19 nM.
The same measure, in the same setting: the figure for `FC1(F)CN(c2cc(-c3n[nH]c4ccc(OC(F)(F)F)cc34)ccn2)C1` [Example 247] is 369 nM.
In the case of `CC(C)(O)Cc1ccc2[nH]nc(-c3ccnc(N4CCOCC4)c3)c2c1` [Example 332], the IC50 under setting [1] was 93 nM.
For `OCCNc1cc(-c2n[nH]c3ccccc23)ccn1` [Example 9], under setting [2], the IC50 worked out at 54 nM.
With `Cn1cc(-c2ccc3[nH]nc(-c4ccnc(N5CC6CCC(C5)O6)c4)c3c2)cn1` [Example 380], the IC50 under setting [1] is 1.9 nM.
For `CC(C)Oc1ccc2[nH]nc(-c3ccnc(N4CCn5ccnc5C4)c3)c2c1` [Example 196], under setting [3], the IC50 was determined as 8.6 nM.
For `CCOc1ccc2[nH]nc(-c3ccnc(N[C@@H](C)CO)c3)c2c1` [Example 358], under setting [1], the IC50 was determined as 16 nM.
Regarding `Fc1cc2[nH]nc(-c3ccnc(N4CCOCC4)c3)c2cc1-c1ccn[nH]1` [Example 351], the IC50 under setting [1] stood at 1.1 nM.
Still for that read-out and setting: the figure for `COc1cccc(S(=O)(=O)Nc2cc(-c3n[nH]c4ccc(OC(C)C)cc34)ccn2)c1` [Example 257] is 78.4 nM.
Regarding `FC1(F)CCN(c2cc(-c3n[nH]c4ccccc34)ccn2)CC1` [Example 28], the IC50 under setting [2] is 57 nM.
Still for that read-out and setting: then `c1ccc2c(-c3ccnc(NCCCn4ccnc4)c3)n[nH]c2c1` [Example 42], with 31 nM; and `F[C@H]1COC[C@@H]1Nc1cc(-c2n[nH]c3ccccc23)ccn1` [Example 38], with 79 nM; and `c1ccc2c(-c3ccnc(N4Cc5cncnc5C4)c3)n[nH]c2c1` [Example 59], with 37 nM.
Consider `FCOc1ccc2[nH]nc(-c3ccnc(N4CCOCC4)c3)c2c1` [Example 85], for which the IC50 under setting [1] is 10.2 nM.
Same read-out and setting: the figure for `COc1ccncc1-c1ccc2[nH]nc(-c3ccnc(N4CCOCC4=O)c3)c2c1` [Example 365] is 17 nM.
In the case of `c1ccc2c(-c3ccnc(NC4COC4)c3)n[nH]c2c1` [Example 33], the IC50 under setting [2] was 3510 nM.
Turning to `Cc1nc2c(o1)CN(c1cc(-c3n[nH]c4ccc(OC(C)C)cc34)ccn1)CC2` [Example 198], under setting [3], the IC50 was 9.2 nM.
Take `CCOc1nccnc1-c1ccc2[nH]nc(-c3ccnc(N4CCOCC4)c3)c2c1` [Ex 390]: the IC50 under setting [1] is 1.6 nM.
On to `CN(C)C(=O)CN1CCN(c2cc(-c3n[nH]c4ccccc34)ccn2)CC1` [Example 65], for which the IC50 under setting [2] stood at 6.8 nM.
On to `Cc1ncc(-c2cc3c(-c4ccnc(N5CC(F)C5)c4)n[nH]c3cc2F)n1C` [Example 310], for which the IC50 under setting [1] was 95 nM.
In the case of `[2H]C1([2H])OC([2H])([2H])C([2H])([2H])N(c2cc(-c3n[nH]c4ccccc34)ccn2)C1([2H])[2H]` [Example 401], under setting [2], the IC50 worked out at 27 nM.
Still for that read-out and setting: the figure for `CC(C)Oc1ccc2[nH]nc(-c3ccnc(NC(=O)CC4CCC(=O)N4)c3)c2c1` (stereo not shown) [Example 165] is 23.4 nM.
On to `c1ccc(N2CCN(c3cc(-c4n[nH]c5ccccc45)ccn3)CC2)nc1` [Example 13], for which the IC50 under setting [2] turned out to be 22 nM.
On to `CS(=O)(=O)C1CN(c2cc(-c3n[nH]c4ccc(O)cc34)ccn2)C1` [Example 255], for which the IC50 under setting [2] was 30.8 nM.
For `F[C@@H]1CCN(c2cc(-c3n[nH]c4ccc(OC(F)(F)F)cc34)ccn2)C1` [Example 240], the IC50 under setting [2] is 206 nM.
Same read-out and setting: the figure for `c1ccc2c(-c3ccnc(N4CCN(Cc5ccncc5)CC4)c3)n[nH]c2c1` [Example 19] is 18 nM.
Turning to `Cn1cc(-c2ccc3[nH]nc(-c4ccnc(N5CCCCC5)c4)c3c2)cn1` [Example 266], the IC50 under setting [1] turned out to be 2.4 nM.
Regarding `CC(C)Oc1ccc2[nH]nc(-c3ccnc(N4CCN(c5nccs5)CC4)c3)c2c1` [Example 203], the IC50 under setting [3] turned out to be 13.4 nM.
On to `Cc1ccc2c(-c3ccnc(N4CCOCC4)c3)n[nH]c2c1` [Example 104], for which the IC50 under setting [1] amounted to 35 nM.
Still for that read-out and setting: then `Cn1cc(-c2ccc3[nH]nc(-c4ccnc(N5CCOCC5)c4)c3c2)nn1` [Example 340], with 1.1 nM.
As for `N#CCCNCc1ccc2[nH]nc(-c3ccnc(N4CCOCC4)c3)c2c1` [Example 93], under setting [2], the IC50 was 30 nM.
Take `CCOc1ccc2[nH]nc(-c3ccnc(N4CCC(OC)CC4)c3)c2c1` [Example 296]: the IC50 under setting [1] is 7.5 nM.
For the molecule `CC(C)Oc1ccc2[nH]nc(-c3ccnc(N4CCN(c5cnccn5)CC4)c3)c2c1` [Example 202], the IC50 under setting [3] was 6.4 nM.
As to `CC(C)Oc1ccc2[nH]nc(-c3ccnc(NC(=O)C4CC4c4cncnc4)c3)c2c1` (stereo not shown) [Example 158], under setting [2], the IC50 was determined as 30.9 nM.
For the molecule `CC(C)Oc1ccc2[nH]nc(-c3ccnc(N4CCN(c5ccccn5)CC4)c3)c2c1` [Example 200], the IC50 under setting [3] was 10.9 nM.
Take `CC(O)c1ccc2[nH]nc(-c3ccnc(N4CCOCC4)c3)c2c1` (stereo not shown) [Example 126]: under setting [1], the IC50 was 9.9 nM.
For `c1cncc(N2CCN(c3cc(-c4n[nH]c5ccccc45)ccn3)CC2)c1` [Example 24], the IC50 under setting [2] was 18 nM.
On to `CCOc1ccc2[nH]nc(-c3ccnc(N4CCN(S(C)(=O)=O)CC4)c3)c2c1` [Example 360], for which the IC50 under setting [1] was less than 0.6 nM.
On the same count and under the same terms, the figure for `CCOc1ccc2[nH]nc(-c3ccnc(N[C@H](C)CO)c3)c2c1` [Example 357] is 5.5 nM; for `c1cc(-c2n[nH]c3ccc(-c4cn[nH]c4)cc23)cc(N2CCOCC2)n1` [Example 344] it is less than 0.6 nM.
`CN1CCN(c2cc(-c3n[nH]c4ccc(-c5ccnc(O)c5)cc34)ccn2)CC1` [Example 123]: under setting [2], the IC50 was determined as 2.7 nM.
For the molecule `CCOc1ccc2[nH]nc(-c3ccnc(N4CC(OC)C4)c3)c2c1` [Example 359], the IC50 under setting [1] amounted to 15 nM.
On to `Cn1cc(-c2ccc3[nH]nc(-c4ccnc(N5CC(O)C5)c4)c3c2)cn1` [Example 375], for which, under setting [1], the IC50 was less than 0.6 nM.
On the same count and under the same terms, the figure for `CC(C)Oc1ccc2[nH]nc(-c3ccnc(N4CCN(C)C(=O)C4)c3)c2c1` [Example 312] is 2.6 nM.
The same measure, in the same setting: the figure for `CO[C@H]1CN(c2cc(-c3n[nH]c4ccc(-c5cnn(C)c5)cc34)ccn2)C[C@@H]1O` [Example 269] is 4.2 nM.
In the case of `Cc1ncc(-c2ccc3[nH]nc(-c4ccnc(N5CC(F)C5)c4)c3c2)n1C` [Example 307], under setting [1], the IC50 was 2.1 nM.
With `COC1CCN(c2cc(-c3n[nH]c4ccc(-c5ccnc(O)c5)cc34)ccn2)CC1` [Example 122], the IC50 under setting [2] is 1.1 nM.
Regarding `CCOc1ccc2[nH]nc(-c3ccnc(N4CCC(F)(F)CC4)c3)c2c1` [Example 216], the IC50 under setting [2] stood at 5.4 nM.
Take `Cc1cccc(Nc2ccc3[nH]nc(-c4ccnc(N5CCOCC5)c4)c3c2)c1` [Example 114]: the IC50 under setting [1] was determined as 28.7 nM.
Take `CO[C@@H]1CCN(c2cc(-c3n[nH]c4ccc(OC(C)C)cc34)ccn2)C1` [Example 178]: the IC50 under setting [2] was 5 nM.
Turning to `CCOc1ccc2[nH]nc(-c3ccnc(NCCO)c3)c2c1` [Example 355], the IC50 under setting [1] is 10 nM.
Still for that read-out and setting: then `Oc1ccnc(F)c1-c1ccc2[nH]nc(-c3ccnc(N4CCOCC4)c3)c2c1` [Example 119], with 34 nM.
Still for that read-out and setting: then `c1ccc(-c2ccc3[nH]nc(-c4ccnc(N5CCOCC5)c4)c3c2)nc1` [Example 99], with 13.7 nM.
As to `CCN(CC)CCNCc1ccc2[nH]nc(-c3ccnc(N4CCOCC4)c3)c2c1` [Example 95], the IC50 under setting [2] stood at 273 nM.
For `CC(CO)Nc1cc(-c2n[nH]c3ccc(OC(C)C)cc23)ccn1` (stereo not shown) [Example 129], under setting [2], the IC50 was found to be 2120 nM.
